Experimental data as given in patent US9186318B2, “Quinolyl-containing hydroxamic acid compound and preparation method thereof, and pharmaceutical composition containing this compound and use thereof” (Beijing Konruns Pharmaceutical Co., Ltd, priority 2011, dated 2015).

How the values were obtained:
Assay in all cases: KinomeScan 96-kinase panel
Format in all cases: binding
Conditions in all cases: compound concentration 1000 nM
PDGFRA = PDGFRA (Homo sapiens (Human), UniProt P16234)
Source text: (§1) The details of the screening technology were described in Fabian, M. A. et al, Nat., Biotechnol. 2005, 23, 329 and Karaman, M. W. et al, Nat., Biotechnol. 2008, 26, 127. From the above representative results, it can be seen that the compounds of the present invention have potent inhibitory activities on kinases including ALK, AXL, VEGFR2, PDGFR-α, PDGFR-β, c-KIT, Flt3, MEK1, MEK2, CSF1R, EPHA2, EPHA2, MKNK2, SRC, TIE2 and their mutants. Accordingly, the compounds of the present invention can be used for the treatment of diseases caused by abnormal activities of these kinases, e.g., cancer, psoriasis, hepatic cirrhosis, diabetes, diseases involving angiogenesis, eye diseases, immune system diseases, cardiovascular diseases, and so forth.

MEK1 = MEK1 (Homo sapiens (Human), UniProt Q02750)
Source text: as §1

p38-beta = p38-beta (Homo sapiens (Human), UniProt Q15759)
Source text: as §1

[1] = biological target: JAK3 (JH1domain-catalytic) (Homo sapiens (Human), UniProt P52333)
Source text: as §1

PDGFRB = PDGFRB (Homo sapiens (Human), UniProt P09619)
Source text: as §1

CSNK1D = CSNK1D (Homo sapiens (Human), UniProt P48730)
Source text: as §1

ULK2 = ULK2 (Homo sapiens (Human), UniProt Q8IYT8)
Source text: as §1

PIK3CA = PIK3CA (Homo sapiens (Human), UniProt P42336)
Source text: as §1

IKK-alpha = IKK-alpha (Homo sapiens (Human), UniProt O15111)
Source text: as §1

PAK4 = PAK4 (Homo sapiens (Human), UniProt O96013)
Source text: as §1

INSR = INSR (Homo sapiens (Human), UniProt P06213)
Source text: as §1

GSK3B = GSK3B (Homo sapiens (Human), UniProt P49841)
Source text: as §1

EGFR(L858R) = EGFR(L858R) (Homo sapiens (Human), UniProt P00533, L858R)
Source text: as §1

VEGFR2 = VEGFR2 (Homo sapiens (Human), UniProt P35968)
Source text: as §1

MAPKAPK2 = MAPKAPK2 (Homo sapiens (Human), UniProt P49137)
Source text: as §1

PCTK1 = PCTK1 (Homo sapiens (Human), UniProt Q00536)
Source text: as §1

AURKB = AURKB (Homo sapiens (Human), UniProt Q96GD4)
Source text: as §1

AKT1 = AKT1 (Homo sapiens (Human), UniProt P31749)
Source text: as §1

ALK = ALK (Homo sapiens (Human), UniProt Q9UM73)
Source text: as §1

TIE2 = TIE2 (Homo sapiens (Human), UniProt Q02763)
Source text: as §1

CDK7 = CDK7 (Homo sapiens (Human), UniProt P50613)
Source text: as §1

CHEK1 = CHEK1 (Homo sapiens (Human), UniProt O14757)
Source text: as §1

FGFR3 = FGFR3 (Homo sapiens (Human), UniProt P22607)
Source text: as §1

CSF1R = CSF1R (Homo sapiens (Human), UniProt P07333)
Source text: as §1

BRAF(V600E) = BRAF(V600E) (Homo sapiens (Human), UniProt P15056, V600E)
Source text: as §1

PRKCE = PRKCE (Homo sapiens (Human), UniProt Q02156)
Source text: as §1

ERBB2 = ERBB2 (Homo sapiens (Human), UniProt P04626)
Source text: as §1

CDK11 = CDK11 (Homo sapiens (Human), UniProt Q9BWU1)
Source text: as §1

IGF1R = IGF1R (Homo sapiens (Human), UniProt P08069)
Source text: as §1

TGFBR1 = TGFBR1 (Homo sapiens (Human), UniProt P36897)
Source text: as §1

KIT (D816V) = KIT (D816V) (Homo sapiens (Human), UniProt P10721, D816V)
Source text: as §1

[2] = biological target: RSK2 (Kin.Dom.1-N-terminal) (Homo sapiens (Human), UniProt P51812)
Source text: as §1

MKNK1 = MKNK1 (Homo sapiens (Human), UniProt Q9BUB5)
Source text: as §1

DCAMKL1 = DCAMKL1 (Homo sapiens (Human), UniProt O15075)
Source text: as §1

RAF1 = RAF1 (Homo sapiens (Human), UniProt P04049)
Source text: as §1

JNK1 = JNK1 (Homo sapiens (Human), UniProt P45983)
Source text: as §1

DYRK1B = DYRK1B (Homo sapiens (Human), UniProt Q9Y463)
Source text: as §1

Chain of IKK-alpha (O15111 whole entry): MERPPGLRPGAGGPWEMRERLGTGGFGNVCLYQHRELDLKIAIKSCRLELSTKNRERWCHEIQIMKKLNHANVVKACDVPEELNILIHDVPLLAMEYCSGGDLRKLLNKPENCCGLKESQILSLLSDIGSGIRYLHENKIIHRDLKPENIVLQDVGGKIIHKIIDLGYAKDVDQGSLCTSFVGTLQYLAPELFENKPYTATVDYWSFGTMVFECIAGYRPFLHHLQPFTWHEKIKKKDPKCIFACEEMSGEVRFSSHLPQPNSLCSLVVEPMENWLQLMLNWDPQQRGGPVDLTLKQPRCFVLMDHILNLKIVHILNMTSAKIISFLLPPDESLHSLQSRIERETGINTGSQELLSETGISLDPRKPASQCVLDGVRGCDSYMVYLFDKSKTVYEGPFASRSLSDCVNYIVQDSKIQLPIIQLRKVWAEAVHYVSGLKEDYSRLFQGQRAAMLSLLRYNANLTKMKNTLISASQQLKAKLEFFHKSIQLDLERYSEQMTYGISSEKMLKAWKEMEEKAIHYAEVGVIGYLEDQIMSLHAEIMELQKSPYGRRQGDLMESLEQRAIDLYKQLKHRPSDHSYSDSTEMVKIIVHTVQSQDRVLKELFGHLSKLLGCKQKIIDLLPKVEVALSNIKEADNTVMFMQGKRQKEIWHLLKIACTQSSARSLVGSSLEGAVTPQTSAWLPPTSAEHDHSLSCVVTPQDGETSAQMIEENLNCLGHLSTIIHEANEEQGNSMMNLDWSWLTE
Chain of CDK11 (Q9BWU1 whole entry): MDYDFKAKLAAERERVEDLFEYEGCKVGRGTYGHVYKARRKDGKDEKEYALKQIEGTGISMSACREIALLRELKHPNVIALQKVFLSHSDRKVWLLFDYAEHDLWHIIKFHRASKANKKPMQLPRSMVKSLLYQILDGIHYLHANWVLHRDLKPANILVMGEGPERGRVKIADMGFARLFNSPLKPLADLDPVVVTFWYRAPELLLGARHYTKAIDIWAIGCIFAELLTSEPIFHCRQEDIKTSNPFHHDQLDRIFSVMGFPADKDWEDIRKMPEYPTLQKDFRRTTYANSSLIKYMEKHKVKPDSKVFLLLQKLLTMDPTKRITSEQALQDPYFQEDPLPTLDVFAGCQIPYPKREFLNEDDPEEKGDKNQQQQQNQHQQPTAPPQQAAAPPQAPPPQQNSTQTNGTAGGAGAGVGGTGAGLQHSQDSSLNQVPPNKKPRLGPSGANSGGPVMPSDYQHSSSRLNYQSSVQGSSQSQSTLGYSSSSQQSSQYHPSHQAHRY
Chain of MKNK1 (Q9BUB5 whole entry): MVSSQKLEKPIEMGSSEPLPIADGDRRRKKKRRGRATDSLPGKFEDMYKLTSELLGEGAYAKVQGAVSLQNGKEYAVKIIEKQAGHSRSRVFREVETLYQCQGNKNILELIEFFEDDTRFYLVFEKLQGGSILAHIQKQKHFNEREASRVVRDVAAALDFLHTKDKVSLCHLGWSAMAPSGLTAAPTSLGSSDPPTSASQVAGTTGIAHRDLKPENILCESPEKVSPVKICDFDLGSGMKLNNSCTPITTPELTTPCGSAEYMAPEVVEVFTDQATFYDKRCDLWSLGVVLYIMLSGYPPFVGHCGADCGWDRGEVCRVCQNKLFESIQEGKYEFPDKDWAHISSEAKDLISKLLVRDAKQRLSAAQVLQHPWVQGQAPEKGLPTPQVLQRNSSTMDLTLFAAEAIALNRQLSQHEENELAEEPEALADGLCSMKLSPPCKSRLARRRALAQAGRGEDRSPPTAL
Chain of KIT (D816V) (P10721 26-976 D816V): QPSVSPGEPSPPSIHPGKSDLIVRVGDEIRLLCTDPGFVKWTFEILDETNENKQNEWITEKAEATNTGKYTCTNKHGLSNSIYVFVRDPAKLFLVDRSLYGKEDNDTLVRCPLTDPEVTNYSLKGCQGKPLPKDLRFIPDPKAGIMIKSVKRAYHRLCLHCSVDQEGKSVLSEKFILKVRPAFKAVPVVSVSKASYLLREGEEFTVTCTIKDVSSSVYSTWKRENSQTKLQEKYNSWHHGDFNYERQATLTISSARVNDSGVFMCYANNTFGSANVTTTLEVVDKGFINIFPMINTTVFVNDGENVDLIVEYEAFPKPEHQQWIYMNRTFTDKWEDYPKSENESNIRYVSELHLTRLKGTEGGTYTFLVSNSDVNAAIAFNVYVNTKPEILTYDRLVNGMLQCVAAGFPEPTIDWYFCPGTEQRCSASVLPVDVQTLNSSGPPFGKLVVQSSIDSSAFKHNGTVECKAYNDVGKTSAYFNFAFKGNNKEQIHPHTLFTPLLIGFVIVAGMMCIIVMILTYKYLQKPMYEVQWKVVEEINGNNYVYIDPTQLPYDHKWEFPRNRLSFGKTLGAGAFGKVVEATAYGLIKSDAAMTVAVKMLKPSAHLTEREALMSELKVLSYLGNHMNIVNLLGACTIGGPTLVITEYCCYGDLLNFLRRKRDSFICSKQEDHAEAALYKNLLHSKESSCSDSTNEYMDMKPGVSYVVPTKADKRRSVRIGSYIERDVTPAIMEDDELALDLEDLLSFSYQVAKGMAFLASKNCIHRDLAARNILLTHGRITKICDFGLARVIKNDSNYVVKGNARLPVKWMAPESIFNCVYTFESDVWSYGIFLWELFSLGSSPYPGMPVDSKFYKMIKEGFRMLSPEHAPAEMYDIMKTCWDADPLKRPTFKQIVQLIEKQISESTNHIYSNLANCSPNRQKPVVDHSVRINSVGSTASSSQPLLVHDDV
Chain of AKT1 (P31749 whole entry): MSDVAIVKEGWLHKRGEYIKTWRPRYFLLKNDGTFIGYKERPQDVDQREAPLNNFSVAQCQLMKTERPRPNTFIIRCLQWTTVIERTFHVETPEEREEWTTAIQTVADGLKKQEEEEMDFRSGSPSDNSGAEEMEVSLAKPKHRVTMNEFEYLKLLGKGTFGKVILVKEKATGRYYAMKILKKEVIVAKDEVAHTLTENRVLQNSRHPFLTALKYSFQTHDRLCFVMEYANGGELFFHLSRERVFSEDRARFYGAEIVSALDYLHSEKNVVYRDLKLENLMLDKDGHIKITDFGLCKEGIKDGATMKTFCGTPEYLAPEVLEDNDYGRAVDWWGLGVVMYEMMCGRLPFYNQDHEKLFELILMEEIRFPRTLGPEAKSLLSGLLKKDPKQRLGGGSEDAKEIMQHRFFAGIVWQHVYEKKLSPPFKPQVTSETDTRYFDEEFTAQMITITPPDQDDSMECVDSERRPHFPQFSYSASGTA
Chain of RAF1 (P04049 whole entry): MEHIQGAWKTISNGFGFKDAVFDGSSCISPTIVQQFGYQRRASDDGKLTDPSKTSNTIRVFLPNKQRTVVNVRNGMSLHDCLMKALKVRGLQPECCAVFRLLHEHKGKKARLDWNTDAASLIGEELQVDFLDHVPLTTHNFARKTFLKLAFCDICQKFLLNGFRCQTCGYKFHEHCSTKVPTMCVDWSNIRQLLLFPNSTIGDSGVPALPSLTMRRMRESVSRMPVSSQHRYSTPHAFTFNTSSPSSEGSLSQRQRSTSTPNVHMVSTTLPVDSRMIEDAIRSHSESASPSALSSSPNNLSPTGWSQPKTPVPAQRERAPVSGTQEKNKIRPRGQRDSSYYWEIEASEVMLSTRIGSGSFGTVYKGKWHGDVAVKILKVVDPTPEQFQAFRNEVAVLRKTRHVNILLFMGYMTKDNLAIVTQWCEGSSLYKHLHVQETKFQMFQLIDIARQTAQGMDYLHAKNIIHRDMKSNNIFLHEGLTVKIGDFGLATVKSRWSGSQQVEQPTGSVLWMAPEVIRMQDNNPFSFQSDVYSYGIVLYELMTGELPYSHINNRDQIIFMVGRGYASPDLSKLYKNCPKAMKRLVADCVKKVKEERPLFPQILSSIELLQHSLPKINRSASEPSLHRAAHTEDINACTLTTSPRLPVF
Chain of PAK4 (O96013 whole entry): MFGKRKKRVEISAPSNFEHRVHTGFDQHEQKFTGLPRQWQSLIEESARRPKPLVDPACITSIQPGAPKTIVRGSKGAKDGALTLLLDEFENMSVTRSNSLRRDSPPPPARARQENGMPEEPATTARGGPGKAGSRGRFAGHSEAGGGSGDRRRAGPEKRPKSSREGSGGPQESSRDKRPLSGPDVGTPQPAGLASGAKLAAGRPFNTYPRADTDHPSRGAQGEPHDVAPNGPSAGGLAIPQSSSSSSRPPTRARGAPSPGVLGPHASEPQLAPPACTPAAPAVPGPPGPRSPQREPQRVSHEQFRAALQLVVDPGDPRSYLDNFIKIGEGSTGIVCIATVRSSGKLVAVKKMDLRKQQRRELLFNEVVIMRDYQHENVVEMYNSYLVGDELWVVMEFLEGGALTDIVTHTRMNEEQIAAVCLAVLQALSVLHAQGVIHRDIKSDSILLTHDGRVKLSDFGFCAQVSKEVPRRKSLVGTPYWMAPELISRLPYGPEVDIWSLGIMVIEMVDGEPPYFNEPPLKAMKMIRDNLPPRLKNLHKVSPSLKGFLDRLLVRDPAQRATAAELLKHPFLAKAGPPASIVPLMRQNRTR
Chain of TGFBR1 (P36897 34-503): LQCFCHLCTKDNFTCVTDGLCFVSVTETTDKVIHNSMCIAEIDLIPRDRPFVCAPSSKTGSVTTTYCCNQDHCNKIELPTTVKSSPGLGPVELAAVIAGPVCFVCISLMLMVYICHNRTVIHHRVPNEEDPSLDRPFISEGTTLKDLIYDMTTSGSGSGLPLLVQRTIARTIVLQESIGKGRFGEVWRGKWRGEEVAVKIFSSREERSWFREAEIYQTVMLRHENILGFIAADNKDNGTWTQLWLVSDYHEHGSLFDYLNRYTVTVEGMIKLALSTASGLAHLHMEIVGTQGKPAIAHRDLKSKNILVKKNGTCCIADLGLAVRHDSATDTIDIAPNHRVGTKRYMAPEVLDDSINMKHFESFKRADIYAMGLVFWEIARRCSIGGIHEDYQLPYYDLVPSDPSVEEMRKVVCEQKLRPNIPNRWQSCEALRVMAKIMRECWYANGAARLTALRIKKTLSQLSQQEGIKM

## COc1cc2c(Oc3ccc(NC(=O)C4(C(=O)Nc5ccc(F)cc5)CC4)cc3F)ccnc2cc1OCCCCCC(=O)NO [Example 13, N1′-[3-fluoro-4-[[7-[6-(hydroxyamino)-6-oxohexyloxy]-6-methoxy-4-quinolyl]oxy]phenyl]-N1-(4-fluorophenyl)cyclopropane-1,1-dicarboxamide]
PDGFRA
  % Ctrl@1000 nM: 1.8 % Ctrl
MEK1
  % Ctrl@1000 nM: 0.95 % Ctrl
p38-beta
  % Ctrl@1000 nM: 78 % Ctrl
[1]
  % Ctrl@1000 nM: 76 % Ctrl
PDGFRB
  % Ctrl@1000 nM: 0 % Ctrl
CSNK1D
  % Ctrl@1000 nM: 54 % Ctrl
ULK2
  % Ctrl@1000 nM: 100 % Ctrl
PIK3CA
  % Ctrl@1000 nM: 100 % Ctrl
IKK-alpha
  % Ctrl@1000 nM: 100 % Ctrl
PAK4
  % Ctrl@1000 nM: 100 % Ctrl
INSR
  % Ctrl@1000 nM: 6 % Ctrl
GSK3B
  % Ctrl@1000 nM: 100 % Ctrl
EGFR(L858R)
  % Ctrl@1000 nM: 5.7 % Ctrl
VEGFR2
  % Ctrl@1000 nM: 1 % Ctrl
MAPKAPK2
  % Ctrl@1000 nM: 67 % Ctrl
PCTK1
  % Ctrl@1000 nM: 100 % Ctrl
AURKB
  % Ctrl@1000 nM: 7 % Ctrl
AKT1
  % Ctrl@1000 nM: 100 % Ctrl
ALK
  % Ctrl@1000 nM: 1.2 % Ctrl
TIE2
  % Ctrl@1000 nM: 0.55 % Ctrl
CDK7
  % Ctrl@1000 nM: 5.8 % Ctrl
CHEK1
  % Ctrl@1000 nM: 96 % Ctrl
FGFR3
  % Ctrl@1000 nM: 64 % Ctrl
CSF1R
  % Ctrl@1000 nM: 0 % Ctrl
BRAF(V600E)
  % Ctrl@1000 nM: 88 % Ctrl
PRKCE
  % Ctrl@1000 nM: 100 % Ctrl
ERBB2
  % Ctrl@1000 nM: 15 % Ctrl
CDK11
  % Ctrl@1000 nM: 1.2 % Ctrl
IGF1R
  % Ctrl@1000 nM: 21 % Ctrl
TGFBR1
  % Ctrl@1000 nM: 85 % Ctrl
KIT (D816V)
  % Ctrl@1000 nM: 2.2 % Ctrl
[2]
  % Ctrl@1000 nM: 96 % Ctrl
MKNK1
  % Ctrl@1000 nM: 8.8 % Ctrl
DCAMKL1
  % Ctrl@1000 nM: 100 % Ctrl
RAF1
  % Ctrl@1000 nM: 53 % Ctrl
JNK1
  % Ctrl@1000 nM: 100 % Ctrl
DYRK1B
  % Ctrl@1000 nM: 63 % Ctrl
